# Test results as given in US7956070B2, “Piperidines as chemokine modulators (CCR)” (AstraZeneca AB, priority 2004, dated 2011).
# Where two headings read alike, the source gives them in different places.
# Key:
# human H1 receptor = target: T1, human H1 receptor (Homo sapiens, UniProt P35367); experiment: Histamine H1 receptor binding, competition displacement of [3H]-pyrilamine; conditions: 1 nM [3H]-pyrilamine, membranes from recombinant CHO-K1 cells expressing the human H1 receptor, 1 hour at room temperature; read-out: H1 pKi (converted)
# T1 construct: purchased Euroscreen SA, Brussels, Belgium ES-390-M; host or cells: recombinant CHO-K1 cells (membranes)
# T1 sequence (P35367 whole entry): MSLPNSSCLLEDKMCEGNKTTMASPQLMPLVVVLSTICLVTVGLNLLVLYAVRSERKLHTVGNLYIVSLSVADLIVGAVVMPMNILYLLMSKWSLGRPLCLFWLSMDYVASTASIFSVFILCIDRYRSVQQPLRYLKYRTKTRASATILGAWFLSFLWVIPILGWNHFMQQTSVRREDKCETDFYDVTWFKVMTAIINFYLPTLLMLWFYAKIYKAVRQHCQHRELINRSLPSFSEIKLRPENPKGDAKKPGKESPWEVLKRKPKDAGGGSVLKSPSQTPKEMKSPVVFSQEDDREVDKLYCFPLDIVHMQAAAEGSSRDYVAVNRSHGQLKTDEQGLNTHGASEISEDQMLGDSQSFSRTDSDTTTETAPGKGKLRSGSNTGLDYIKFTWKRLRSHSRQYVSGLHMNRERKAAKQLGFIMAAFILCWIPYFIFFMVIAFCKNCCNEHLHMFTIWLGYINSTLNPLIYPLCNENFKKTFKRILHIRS
# Procedure: Histamine H1 receptor binding activity of compounds of the invention was assessed by competition displacement of 1 nM [3H]-pyrilamine (Amersham, Bucks, Product code TRK 608, specific activity 30 Ci/mmol) to 2 μg membranes prepared from recombinant CHO-K1 cells expressing the human H1 receptor (Euroscreen SA, Brussels, Belgium, product code ES-390-M) in assay buffer (50 mM Tris pH 7.4 containing 2 mM MgCl2, 250 mM sucrose and 100 mM NaCl) for 1 hour at room temperature.
# The following compounds of the invention gave inhibition of [3H]pyrilimine binding: […]
# [1] = pKa measurement (Sirius GLpKa); type: physicochemical
# Procedure: The pKa of a compound of formula (I) is measured using one of the following methodologies.
# The apparatus used consists of a Sirius GLpKa instrument with DPAS (Dip Probe Absorption Spectroscopy) attachment. Key elements of the apparatus are a Sirius pH electrode, stirrer, titrant dispensing tubes, a multi-tipped dispenser, motor driven dispensing syringes, fibre optic UV probe and diode array detector. In addition, solutions in PTFE containers of ionic strength adjusted (0.10 M KCl) distilled water, nominally 0.50 M HCl, nominally 0.50 M KOH and 80% v/v methanol:water are also housed within the instrument. The titration solutions are constantly purged with oxygen free nitrogen. The reservoir for the potassium hydroxide solution is further protected from atmospheric contamination by a soda-lime guard-tube. Samples are placed in titration vessels which in turn are placed in a movable autosampler tray (maximum capacity 48 samples). The electrode, stirrer, dispensing tubing/tips and DPAS probe are housed on a movable, automated z-tower unit, which, controlled by software, positions itself in the appropriate titration vessel when titrating. The Sirius GLpKa instrument is directly connected to a dedicated PC supporting software for assay setup and subsequent data analysis. Assays are set up using the GlpKaControl software and results are analysed using the pKaLOGP and pKaUV software on the PC. The software also allows determination of multiple pKas using complex curve fitting analyses.
# Method B: Potentiometric Method
# Two types of potentiometric titrations may be performed in order to determine a compound's pKa/pKas; a purely aqueous titration (recommended for fairly water soluble compounds) and a cosolvent titration, where variable amounts of methanol are added to the sample in addition to ionic strength adjusted water (recommended for compounds which are not soluble in water). For the latter, a value for the compound's pKa in pure ionic strength adjusted water can be estimated by the Yasuda-Shedlovsky procedure. This involves measuring the apparent pKa of the compound at three known weight percentages of methanol:water (transposed into reciprocals of the dielectric constants of the medium, 1/εr) and then extrapolating to 0 wt % methanol (1/εr=[…]).
# The GLpKa instrument unit also houses two aqueous wash containers (containing distilled water), a waste beaker (to dispense extraneous solutions into) and a container holding pH 7.00 buffer solution for the electrode to be immersed in during periods between titrations. Each time a set of titrations is carried out, these solutions are replaced. Position 1 in the autosampler contains a titration vessel containing pH 7.00 buffer solution (changed for each titration set). For each titration set to be run, position 2 houses a titration vessel into which ionic strength adjusted water is dispensed (typically 15.00 mL). This in turn is adjusted to pH 1.80 with aqueous HCl and then titrated to pH 12.20 by gradual addition of aqueous KOH. This is referred to as a blank titration and is employed by the pKaLogP software in order to calibrate the pH electrode and to standardise the HCl solution, using the so-called four-plus parameter procedure. Periodically, (typically every 3 months, or when the titration solutions run low) the titration solutions are replaced and the KOH solution standardised against potassium hydrogen phthalate using a standardisation procedure within the GLpKaControl software. Between 1-2 mg of each sample must be accurately weighed out. Samples are placed in provided glass titration vessels. The weight of compound must be entered into the GLpKaControl software. […]
# [2] = ionic strength adjusted (0.10 M KCl) water, Method B: potentiometric method, read-out: pKa (measured using Method B)
SMILES,Ki (human H1 receptor),"pKa [1, 2]","pKa ([1]; method not stated, read-out: measured pKa)"
"Cc1c(OC2CCN(C[C@H](O)CNC(=O)c3ccc(Cl)c(C(=O)O)c3)CC2)ccc(Cl)c1Cl [Example 42, 2-Chloro-5-[({(2R)-3-[4-(3,4-dichloro-2-methylphenoxy)piperidin-1-yl]-2-hydroxypropyl}amino)carbonyl]benzoic acid]",126 nM,–,2.3
"CS(=O)(=O)Nc1cc(C(F)(F)F)c(C(=O)NC[C@@H](O)CN2CCC(Oc3ccc(Cl)c(Cl)c3)CC2)cn1 [Example 18, N-{(2R)-3-[4-(3,4-Dichlorophenoxy)piperidin-1-yl]-2-hydroxypropyl}-6-[(methylsulfonyl)amino]-4-(trifluoromethyl)nicotinamide]",316 nM,5.3,–
"O=C(NC[C@@H](O)CN1CCC(Oc2ccc(Cl)c(Cl)c2)CC1)c1sc(=O)[nH]c1-c1ccc(F)cc1 [Example 25, N-{(2R)-3-[4-(3,4-Dichlorophenoxy)piperidin-1-yl]-2-hydroxypropyl}-4-(4-fluorophenyl)-2-oxo-2,3-dihydro-1,3-thiazole-5-carboxamide]",15.8 nM,7.4,–
"CN(c1[nH]nnc1C(=O)NC[C@@H](O)CN1CCC(Oc2ccc(Cl)c(Cl)c2)CC1)S(C)(=O)=O [Example 39, N-{(2R)-3-[4-(3,4-Dichlorophenoxy)piperidin-1-yl]-2-hydroxypropyl}-5-[methyl(methylsulfonyl)amino]-1H-1,2,3-triazole-4-carboxamide]",126 nM,–,–

# The remaining lines, values ahead:
Ki (human H1 receptor),"pKa [1, 2]","pKa ([1]; method not stated, read-out: measured pKa)",SMILES
15.8 nM,7.5,–,"Cc1[nH]nnc1C(=O)NC[C@@H](O)CN1CCC(Oc2ccc(Cl)c(Cl)c2)CC1 [Example 8, N-{(2R)-3-[4-(3,4-Dichlorophenoxy)piperidin-1-yl]-2-hydroxypropyl}-5-methyl-1H-1,2,3-triazole-4-carboxamide]"
25.1 nM,3.8,–,"N#Cc1cc(C(=O)NC[C@@H](O)CN2CCC(Oc3ccc(Cl)c(Cl)c3)CC2)c(C2CC2)[nH]c1=O [Example 16, 5-Cyano-2-cyclopropyl-N-[(2R)-3-[4-(3,4-dichlorophenoxy)-1-piperidinyl]-2-hydroxypropyl]-1,6-dihydro-6-oxo-3-pyridinecarboxamide]"
200 nM,–,–,"O=C(O)c1ccc(C(=O)NC[C@@H](O)CN2CCC(Oc3ccc(Cl)c(Cl)c3)CC2)c2ccccc12 [Example 20, 4-[({(2R)-3-[4-(3,4-Dichlorophenoxy)piperidin-1-yl]-2-hydroxypropyl}amino)-carbonyl]-1-naphthoic acid]"
